Data reported in patent US10669272B2, “Substituted naphthyridinone compounds useful as T cell activators” (BRISTOL-MYERS SQUIBB COMPANY, priority 2018, dated 2020).
Like-named read-outs stand apart in the source and are kept apart here.

Key:
[1] = target: T1, human DGKζ (Homo sapiens, UniProt Q13574); assay: DGKζ LIPGLO assay (extruded liposome substrate), in vitro DGK inhibition; assay type: biochemical; conditions: read-out: DGKz LIPGLO IC50
T1 construct: TVMV protease cleavage site (C); Hexa-His (C); made in house; host or cells: Sf9 insect cells (baculovirus, Bac-to-Bac)

[2] = target: T2, human DGKα (Homo sapiens, UniProt P23743); assay: DGKα LIPGLO assay (extruded liposome substrate), in vitro DGK inhibition; assay type: biochemical; conditions: read-out: DGKa LIPGLO IC50
T2 construct: TVMV protease cleavage site (C); Hexa-His (C); made in house; host or cells: Sf9 insect cells (baculovirus, Bac-to-Bac)
T2 sequence (P23743 with tags, fused parts or gaps): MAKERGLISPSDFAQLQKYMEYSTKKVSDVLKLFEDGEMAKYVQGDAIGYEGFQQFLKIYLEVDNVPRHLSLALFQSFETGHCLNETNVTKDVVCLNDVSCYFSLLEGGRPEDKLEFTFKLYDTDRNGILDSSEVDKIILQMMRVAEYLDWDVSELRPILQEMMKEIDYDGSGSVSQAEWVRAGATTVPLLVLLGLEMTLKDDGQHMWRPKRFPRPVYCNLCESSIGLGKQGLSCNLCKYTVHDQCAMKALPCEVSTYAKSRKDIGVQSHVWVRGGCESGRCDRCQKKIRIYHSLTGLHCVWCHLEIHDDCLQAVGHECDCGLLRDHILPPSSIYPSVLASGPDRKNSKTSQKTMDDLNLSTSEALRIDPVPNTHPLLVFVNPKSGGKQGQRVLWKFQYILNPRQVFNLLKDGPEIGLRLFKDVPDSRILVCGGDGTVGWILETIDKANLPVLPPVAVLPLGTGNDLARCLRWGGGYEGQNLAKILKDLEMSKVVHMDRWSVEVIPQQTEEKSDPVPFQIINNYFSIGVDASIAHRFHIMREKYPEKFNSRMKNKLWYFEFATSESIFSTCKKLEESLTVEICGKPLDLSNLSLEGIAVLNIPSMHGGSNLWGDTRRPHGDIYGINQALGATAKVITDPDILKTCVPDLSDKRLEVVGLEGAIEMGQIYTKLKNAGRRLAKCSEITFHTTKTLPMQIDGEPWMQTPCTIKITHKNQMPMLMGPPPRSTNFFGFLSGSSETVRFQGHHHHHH

T1 sequence (Q13574 with tags, fused parts or gaps isoform Q13574-4): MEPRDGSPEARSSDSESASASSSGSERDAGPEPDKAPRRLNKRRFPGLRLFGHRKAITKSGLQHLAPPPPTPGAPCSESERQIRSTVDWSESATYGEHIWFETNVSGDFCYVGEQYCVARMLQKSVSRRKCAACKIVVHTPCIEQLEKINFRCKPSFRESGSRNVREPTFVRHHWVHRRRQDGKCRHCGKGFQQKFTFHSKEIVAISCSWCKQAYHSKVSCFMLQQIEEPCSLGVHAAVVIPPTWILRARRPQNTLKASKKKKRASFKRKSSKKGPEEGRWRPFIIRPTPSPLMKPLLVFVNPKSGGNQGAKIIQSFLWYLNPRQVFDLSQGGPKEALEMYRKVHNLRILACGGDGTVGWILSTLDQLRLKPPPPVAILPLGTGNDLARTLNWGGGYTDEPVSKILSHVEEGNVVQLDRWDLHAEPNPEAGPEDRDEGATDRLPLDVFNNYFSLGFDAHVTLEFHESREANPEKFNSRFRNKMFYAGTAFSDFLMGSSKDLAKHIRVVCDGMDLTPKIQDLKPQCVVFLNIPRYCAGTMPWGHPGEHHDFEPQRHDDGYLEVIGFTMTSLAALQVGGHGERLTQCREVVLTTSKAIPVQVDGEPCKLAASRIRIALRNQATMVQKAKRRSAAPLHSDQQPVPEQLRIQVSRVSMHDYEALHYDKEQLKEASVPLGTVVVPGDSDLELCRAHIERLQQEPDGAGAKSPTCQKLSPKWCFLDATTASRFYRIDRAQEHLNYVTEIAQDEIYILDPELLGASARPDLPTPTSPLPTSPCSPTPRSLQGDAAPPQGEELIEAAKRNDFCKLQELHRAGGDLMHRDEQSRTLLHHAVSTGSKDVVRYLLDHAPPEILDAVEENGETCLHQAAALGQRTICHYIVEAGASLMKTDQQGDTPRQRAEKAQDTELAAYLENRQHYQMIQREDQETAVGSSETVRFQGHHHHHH

Structure (SMILES) | IC50 ([1]; liposome (LIPGLO) assay) [µM] | IC50 ([2]; liposome (LIPGLO) assay) [µM] | IC50 ([1]; DGKζ liposome (LIPGLO) assay) [µM] | IC50 ([2]; DGKα liposome (LIPGLO) assay) [µM]
C[C@@H]1CN(c2cc(=O)n(C)c3ccc(C#N)nc23)[C@@H](C)CN1C(c1ccc(F)cc1)C1CCOCC1 (single isomer, unassigned) [Example 388] | 14 | 8.5 | – | –
CC(c1c(F)cc(F)cc1F)N1C[C@H](C)N(c2cc(=O)n(C)c3ccc(C#N)nc23)C[C@H]1C (single isomer, unassigned) [Example 488] | 11 | 15 | – | –
C[C@@H]1CN(c2cc(=O)n(C)c3ccc(C#N)nc23)[C@@H](C)CN1C(c1ccc(F)cc1)C1CCS(=O)(=O)CC1 (single isomer, unassigned) [Example 1301] | 3.6 | 91 | – | –
CCC(c1ccc(OC(F)(F)F)cc1)N1C[C@H](CC)N(c2cc(=O)n(C)c3ccc(C#N)nc23)C[C@H]1CC (single isomer, unassigned) [Example 1059] | 0.044 | 0.009 | – | –
CC(c1cc(OC(F)F)ccc1F)N1C[C@H](C)N(c2cc(=O)n(C)c3ccc(C#N)nc23)C[C@H]1C (single isomer, unassigned) [Example 1228] | 3 | 5.4 | – | –
C[C@@H]1CN(c2cc(=O)n(C)c3ccc(C#N)nc23)[C@@H](C)CN1Cc1cccc2c1N(C)C(=O)CO2 [Example 635] | 150 | 8 | – | –
CC[C@H]1CN(C(C)c2cc(F)c(F)c(F)c2)[C@H](C)CN1c1cc(=O)n(C)c2ccc(C#N)nc12 (single isomer, unassigned) [Example 1382] | 0.06 | 0.66 | – | –
CC[C@H]1CN(C(C)c2ccc(C3CC3)cc2F)[C@H](CC)CN1c1cc(=O)n(C)c2ccc(C#N)nc12 (single isomer, unassigned) [Example 1357] | 0.02 | 0.12 | – | –
C[C@@H]1CN(c2c(C#N)c(=O)n(C)c3ccc(C#N)nc23)[C@@H](C)CN1C(c1ccc(F)cc1)c1ccc(C(F)(F)F)cn1 (single isomer, unassigned) [Example 837] | – | – | 35 | 5.7
C[C@@H]1CN(c2cc(=O)n(C)c3ccc(C#N)nc23)[C@@H](C)CN1C(CO)c1ccc(C(F)(F)F)cn1 (stereo partly drawn) [Example 1279, 8-((2S,5R)-4-(2-hydroxy-1-(5-(trifluoromethyl)pyridin-2-yl)ethyl)-2,5-dimethylpiperazin-1-yl)-5-methyl-6-oxo-5,6-dihydro-1,5-naphthyridine-2-carbonitrile] | 1.4 | 1.4 | – | –
C[C@@H]1CN(c2c(C#N)c(=O)n(C)c3ccc(C#N)nc23)CCN1C(c1ccc(F)cc1)c1cnccn1 (some centres unmarked) [Example 943] | – | – | 6.7 | 1.1
CC(c1cccc(C(F)(F)F)c1)N1CCN(c2c(C#N)c(=O)n(C)c3ccc(C#N)nc23)C[C@H]1C (single isomer, unassigned) [Example 971] | – | – | 4.9 | 1.8
C[C@@H]1CN(c2cc(=O)n(C)c3ccc(C#N)nc23)[C@@H](C)CN1C(c1ccc(F)cc1)c1ccccc1N1CCOCC1 (single isomer, unassigned) [Example 665] | > 250 | > 250 | – | –
CC(c1ccc(OC(F)F)cn1)N1C[C@H](C)N(c2cc(=O)n(C)c3ccc(C#N)nc23)C[C@H]1C (some centres unmarked) [Example 653] | 1.1 | 0.094 | – | –
CC(c1ccc(OC(F)(F)F)cc1)N1C[C@@H](C)N(c2cc(=O)n(C)c3ccc(C#N)nc23)C[C@@H]1CO (single isomer, unassigned) [Example 1181] | 2.5 | 77 | – | –
Cn1c(=O)cc(N2CCN(C(c3ccc(F)cc3)c3ccc(F)cc3)C(COC(F)F)C2)c2nc(C#N)ccc21 (single isomer, unassigned) [Example 1187] | 2.9 | 150 | – | –
C[C@@H]1CN(c2cc(=O)n(C)c3ccc(C#N)nc23)[C@@H](C)CN1Cc1cccc(N(C)C)c1 [Example 573] | 0.64 | 4.3 | – | –
Cc1c(F)ccc(C(C)N2C[C@H](C)N(c3cc(=O)n(C)c4ccc(C#N)nc34)C[C@H]2C)c1Cl (single isomer, unassigned) [Example 487] | 11 | 41 | – | –
CC[C@H]1CN(C(c2ccc(F)cc2)c2nc(C3CC3)no2)[C@H](CC)CN1c1cc(=O)n(C)c2ccc(C#N)nc12 (some centres unmarked) [Example 1064] | 0.039 | 0.08 | – | –
Cc1ncc(C(c2ccc(Cl)cc2)N2CCN(c3c(C#N)c(=O)n(C)c4ccc(C#N)nc34)C[C@H]2C)cn1 (stereo partly drawn) [Example 314, 8-((3R)-4-((4-chlorophenyl)(2-methylpyrimidin-5-yl)methyl)-3-methylpiperazin-1-yl)-5-methyl-6-oxo-5,6-dihydro-1,5-naphthyridine-2,7-dicarbonitrile] | 31 | 8.5 | – | –
Cc1ccc(C(c2cccc(F)c2)N2CCN(c3c(C#N)c(=O)n(C)c4ccc(C#N)nc34)C[C@H]2C)nc1 (single isomer, unassigned) [Example 912] | – | – | 0.58 | 2.1
CC[C@@H]1CN(c2cc(=O)n(C)c3ccc(C#N)nc23)[C@@H](C)CN1C(C)c1c(F)cc(F)cc1F (single isomer, unassigned) [Example 1089] | 0.12 | 0.51 | – | –

Structure (SMILES) | IC50 ([1]; liposome (LIPGLO) assay) [µM] | IC50 ([2]; liposome (LIPGLO) assay) [µM] | IC50 ([1]; DGKζ liposome (LIPGLO) assay) [µM] | IC50 ([2]; DGKα liposome (LIPGLO) assay) [µM]
Cc1ncc(C(c2ccc(Cl)cc2)N2CCN(c3c(C#N)c(=O)n(C)c4ccc(C#N)nc34)C[C@H]2C)cn1 (single isomer, unassigned) [Example 413] | 15 | 12 | – | –
CCC(c1cc(Cl)cc2c1OCC2)N1C[C@H](C)N(c2cc(=O)n(C)c3ccc(C#N)nc23)C[C@H]1C (stereo partly drawn) [Example 353, 8-((2S,5R)-4-(1-(5-chloro-2,3-dihydrobenzofuran-7-yl)propyl)-2,5-dimethylpiperazin-1-yl)-5-methyl-6-oxo-5,6-dihydro-1,5-naphthyridine-2-carbonitrile] | 1.4 | 72 | – | –
CC(C)Oc1cc(F)ccc1CN1C[C@H](C)N(c2cc(=O)n(C)c3ccc(C#N)nc23)C[C@H]1C [Example 598] | 1.8 | 0.34 | – | –
COC[C@@H]1CN(c2cc(=O)n(C)c3ccc(C#N)nc23)[C@@H](C)CN1C(C)c1ccc(OC(F)(F)F)cc1 (single isomer, unassigned) [Example 1163] | 7.5 | 10 | – | –
C[C@@H]1CN(c2c(C#N)c(=O)n(C)c3ccc(C#N)nc23)CCN1C(c1ccc(Cl)cc1)c1ccc(C#N)cc1 (single isomer, unassigned) [Example 873] | – | – | 7.2 | 2.6
CC(c1cc(F)c(F)c(F)c1)N1C[C@H](C)N(c2cc(=O)n(C)c3ccc(C#N)nc23)C[C@H]1C (single isomer, unassigned) [Example 1240] | 0.15 | 3.5 | – | –
CC(c1ccc(C#N)c(OCCN(C)C)c1)N1C[C@H](C)N(c2cc(=O)n(C)c3ccc(C#N)nc23)C[C@H]1C (single isomer, unassigned) [Example 1322] | 53 | 130 | – | –
C[C@@H]1CN(c2c(C#N)c(=O)n(C)c3ccc(C#N)nc23)CCN1C(c1ccc(Cl)cc1)c1ccncn1 (single isomer, unassigned) [Example 320] | 28 | 9.3 | – | –
COCC(c1ccc(F)cc1)N1C[C@H](C)N(c2cc(=O)n(C)c3ccc(C#N)nc23)C[C@H]1C (single isomer, unassigned) [Example 560] | 2.9 | 0.58 | – | –
C[C@@H]1CN(c2cc(=O)n(C)c3ccc(C#N)nc23)[C@@H](C)CN1Cc1ccc(OC(F)(F)F)cc1F (single isomer, unassigned) [Example 624] | 24 | 0.66 | – | –
Cn1c(=O)cc(N2CC(C3CC3)N(C(c3ccc(F)cc3)c3ccc(F)cc3)CC2C2CC2)c2nc(C#N)ccc21 (single isomer, unassigned) [Example 153, 8-(4-(bis(4-fluorophenyl)methyl)-2,5-dicyclopropylpiperazin-1-yl)-5-methyl-6-oxo-5,6-dihydro-1,5-naphthyridine-2-carbonitrile] | 240 | 240 | – | –
CC(c1ccc(C(F)(F)F)cc1)N1C[C@H](C)N(c2c(C#N)c(=O)n(C)c3ccc(C#N)nc23)C[C@H]1C (some centres unmarked) [Example 788] | – | – | > 250 | 4.8
C[C@@H]1CN(c2c(C#N)c(=O)n(C)c3ccc(C#N)nc23)[C@@H](C)CN1C(c1ccc(F)cc1)c1ccns1 (single isomer, unassigned) [Example 855] | – | – | 20 | 27
C[C@@H]1CN(c2cc(=O)n(C)c3ccc(C#N)nc23)[C@@H](C)CN1CCc1ccccc1 [Example 632] | 11 | 6.5 | – | –
Cc1ccc(C(c2ccc(F)cc2Cl)N2CCN(c3c(C#N)c(=O)n(C)c4ccc(C#N)nc34)C[C@H]2C)nc1 (some centres unmarked) [Example 938] | – | – | 2.8 | 5.9
CC(c1ccc(C(F)(F)F)cc1F)N1C[C@H](C)N(c2cc(=O)n(C)c3ccc(C#N)nc23)C[C@H]1C (single isomer, unassigned) [Example 412] | 13 | 12 | – | –
C[C@@H]1CN(c2cc(=O)n(C)c3ccc(C#N)nc23)[C@@H](C)CN1C(c1ccc(F)cc1)c1noc(C(C)(C)C)n1 (single isomer, unassigned) [Example 764] | – | – | 0.53 | 0.051
C[C@@H]1CN(c2c(C#N)c(=O)n(C)c3ccc(C#N)nc23)CCN1Cc1cccnc1 [Example 998] | – | – | > 250 | 21
CCC(c1ccc(F)c(F)c1)N1C[C@H](C)N(c2cc(=O)n(C)c3ccc(C#N)nc23)C[C@H]1C (single isomer, unassigned) [Example 411] | 19 | 22 | – | –
CC(c1ccccn1)N1CCN(c2c(C#N)c(=O)n(C)c3ccc(C#N)nc23)C[C@H]1C (single isomer, unassigned) [Example 965] | – | – | 60 | 0.96
CC[C@@H]1CN(c2cc(=O)n(C)c3ccc(C#N)nc23)[C@@H](C)CN1C(C)c1ccc(F)cc1F (single isomer, unassigned) [Example 1088] | 4.9 | 3.4 | – | –
